# Measured values reported in PubChem BioAssay (NCI).
#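 Five compound concentrations were applied to cells in 96-well plates for 48 hours; endpoints were derived by simple linear interpolation of the resulting dose-response curve. GI50 is the concentration that inhibits growth by half. TGI marks complete inhibition of growth.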
# Key:
# Test in all cases: inhibition of tumour cell growth, NCI panel, 48 h
# OVCAR-8 ovarian = test system: OVCAR-8 ovarian
# LOX IMVI melanoma = test system: LOX IMVI melanoma
# NCI-H226 lung = test system: NCI-H226 lung
# CCRF-CEM leukemia = test system: CCRF-CEM leukemia
# SNB-75 CNS = test system: SNB-75 CNS
# UACC-257 melanoma = test system: UACC-257 melanoma
# CAKI-1 renal = test system: CAKI-1 renal
# IGROV1 ovarian = test system: IGROV1 ovarian
# M14 melanoma = test system: M14 melanoma
# ACHN renal = test system: ACHN renal
SMILES,GI50 (OVCAR-8 ovarian),TGI (OVCAR-8 ovarian),GI50 (LOX IMVI melanoma),TGI (LOX IMVI melanoma),GI50 (NCI-H226 lung),TGI (NCI-H226 lung),GI50 (CCRF-CEM leukemia),TGI (CCRF-CEM leukemia),GI50 (SNB-75 CNS),TGI (SNB-75 CNS),GI50 (UACC-257 melanoma),TGI (UACC-257 melanoma),GI50 (CAKI-1 renal),TGI (CAKI-1 renal),GI50 (IGROV1 ovarian),TGI (IGROV1 ovarian),GI50 (M14 melanoma),TGI (M14 melanoma),GI50 (ACHN renal),TGI (ACHN renal)
COc1ccc(/C=C\[N+](=O)[O-])cc1OC,2.84 µM,11.1 µM,1.66 µM,3.45 µM,22.9 µM,88.8 µM,3.2 µM,22.7 µM,10.6 µM,29.8 µM,0.919 µM,3.38 µM,1.8 µM,4.84 µM,1.82 µM,4.46 µM,1.82 µM,4.18 µM,3.68 µM,13.9 µM
CCCCC#CC1=C(Br)C(=O)OC1,1.75 µM,10.2 µM,0.318 µM,–,3.76 µM,26.6 µM,0.261 µM,–,15.6 µM,> 100 µM,2.2 µM,5.67 µM,1.26 µM,4.63 µM,0.368 µM,3.33 µM,1.26 µM,3.71 µM,2.24 µM,> 21 µM
O=C(CCN(C(=O)O)S(=O)(=O)c1ccc(NC(=O)c2ccccc2)cc1)Nc1ccccc1,–,> 100 µM,–,> 71.4 µM,–,> 100 µM,–,> 81.2 µM,–,> 100 µM,–,> 86.3 µM,–,> 100 µM,–,> 100 µM,–,> 100 µM,–,> 100 µM
COC(=O)c1ccc2c(c1)nc(NC(=O)c1ccccc1)n2CCCc1ccccc1,4.79 µM,> 100 µM,2.63 µM,> 100 µM,11.2 µM,> 100 µM,1.86 µM,> 100 µM,18.6 µM,> 100 µM,6.85 µM,> 100 µM,3.57 µM,> 100 µM,5.01 µM,> 100 µM,2.28 µM,> 100 µM,3.75 µM,> 100 µM
Nc1nn2cc(F)cnc2c1C(=O)Nc1cncc(F)c1N1CCC(C(=O)N2CCN(C3COC3)CC2)CC1,0.548 µM,6.13 µM,0.285 µM,1.55 µM,1.17 µM,4.45 µM,0.0332 µM,–,0.168 µM,1.5 µM,1.32 µM,> 76.4 µM,0.235 µM,3.16 µM,0.464 µM,3.04 µM,0.154 µM,5.4 µM,0.25 µM,–
COc1cccc(CC(C)=C(c2ccc(OCCN(C)C)cc2)c2ccc(OCCN(C)C)cc2)c1,2.04 µM,6.71 µM,0.604 µM,1.16 µM,4.8 µM,10.4 µM,0.693 µM,2.23 µM,1.46 µM,6.28 µM,4.06 µM,8.8 µM,3.96 µM,8.27 µM,3.98 µM,8.73 µM,0.612 µM,1.2 µM,1.04 µM,3.35 µM
COC(=O)C(C(=O)c1ccccc1)C(C(=O)C(=O)Nc1ccc(OC)cc1OC)C(=O)C(=O)c1ccc(C)cc1 (stereo unspecified),–,> 100 µM,–,> 100 µM,–,> 100 µM,–,> 100 µM,–,> 100 µM,–,> 100 µM,–,> 100 µM,–,> 100 µM,–,> 100 µM,–,> 100 µM
